Patent US12171230B2, “Herbicidal compositions” (Bayer Aktiengesellschaft, priority 2018, dated 2024)
Where “and” joins values, the source holds several entries; their conditions need not be identical. Identical values can stand only once.

Experiments:
Type in all cases: in vivo
Abutilon theophrasti = experiment: Post-emergence herbicidal action against Abutilon theophrasti; details: 100 g of a.i./ha
Viola tricolor [1] = experiment: Post-emergence herbicidal action against Viola tricolor
Procedure, shortened: (§1)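 Rates are given as grams of active ingredient (100% active compound) per hectare. E^A is the summed effect of the individual applications and E^C the expected value by Colby, with ratings timed in days after application (DAT).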

Matricaria inodora = experiment: Post-emergence herbicidal action against Matricaria inodora; details: for Herbicidal action: 1 g a.i./ha
Alopecurus myosuroides [2] = experiment: Post-emergence herbicidal action against Alopecurus myosuroides
Ephilobium hirsutum = experiment: Post-emergence herbicidal action against Ephilobium hirsutum; details: 100 g of a.i./ha
Description: When the observed efficacies exceed the formal sum total of the values of the tests with individual applications, they also exceed the expected value according to Colby, which is calculated using the formula below and is likewise regarded as an indication of synergism (cf. S. R. Colby; in Weeds 15 (1967) p. 20 to 22): E^C=A+B−([…])
Here: • A=efficacy of the active compound (A) in % at an application rate of a g a.i./ha; • B=efficacy of the active compound (B) in % at an application rate of b g a.i./ha; • E^C=expected value of the effect of the combination (A)+(B) in % at the combined application rate a+b g a.i./ha.
Seeds or rhizome pieces of mono- and dicotyledonous weeds are placed in sandy loam in pots, covered with soil and grown in a greenhouse under good growth conditions (temperature, air humidity, water supply). Three weeks after sowing, the test plants were treated at the three-leaf stage with the compositions according to the invention. The compositions according to the invention formulated as spray powders or as emulsion concentrates were sprayed onto the green plant parts in various dosages with an application rate of 300 to 800 l/ha of water (equivalent). After the test plants have been left to stand in the greenhouse under optimal growth conditions for about 3 to 4 weeks, the action of the preparations is scored visually in comparison to untreated controls. […]

Lolium rigidum [3] = experiment: Post-emergence herbicidal action against Lolium rigidum
Brachiaria plantaginea = experiment: Post-emergence herbicidal action against Brachiaria plantaginea
Text: (§2) The following abbreviations are used in the description and the tables that follow: • g of a.i./ha=grams of active substance (active ingredient) (=100% active compound) per hectare; • The sum total of the effects of the individual applications is reported under E^A; • expected values according to Colby are each reported under E^C.
(§3) The rating period is reported in days after application (DAT).

Bromus sterilis = experiment: Post-emergence herbicidal action against Bromus sterilis
Digitaria horizontalis = experiment: Post-emergence herbicidal action against Digitaria horizontalis
Text: as §2, §3

Phalaris minor = experiment: Post-emergence herbicidal action against Phalaris minor
[4] = system: Lolium rigidum (resistant biotype); experiment: Post-emergence herbicidal action against Lolium rigidum (resistant biotype)
Galium aparine = experiment: Post-emergence herbicidal action against Galium aparine
Procedure, shortened: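 Pot-grown plants, three weeks old at the three-leaf stage, received foliar sprays of various dosages. Visual assessment relative to untreated plants followed 3 to 4 weeks later.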

Malva pusilia = experiment: Post-emergence herbicidal action against Malva pusilia; details: 42 DAT; 100 g a.i./ha
Viola tricolor [5] = experiment: Post-emergence herbicidal action against Viola tricolor; remark: listed apart in the source
Lysimachia nummularia = experiment: Post-emergence herbicidal action against Lysimachia nummularia; details: 45 DAT; 100 g a.i./ha
Lolium rigidum [6] = experiment: Post-emergence herbicidal action against Lolium rigidum; remark: listed apart in the source
Procedure, shortened: as §1

Veronica hederifolia = experiment: Post-emergence herbicidal action against Veronica hederifolia; details: 28 DAT; 1 g a.i./ha
Alopecurus myosuroides [7] = experiment: Post-emergence herbicidal action against Alopecurus myosuroides; remark: listed apart in the source
[8] = (Z61) post-emergence, g of a.i./ha: 200, 100, 100 + 200
[9] = (Z61) post-emergence, g of a.i./ha: 1, 270, 90, 30, 1 + 270, 1 + 90, 1 + 30

C=C[C@]1(C(=O)N[C@H]2CO[C@@H](C(=O)OC)C2)CC(c2cc(F)cc(F)c2)=NO1 (relative stereo) [Compound A3, methyl rel-(2R,4R)-4-[[(5S)-3-(3,5-difluorophenyl)-5-vinyl-4H-isoxazole-5-carbonyl]amino]tetrahydrofuran-2-carboxylate]
Herbicidal action 37 DAT [%] against Abutilon theophrasti (Abutilon theophrasti): 75% | Herbicidal action 14 DAT against Viola tricolor (Viola tricolor [1]; 1 g of a.i./ha): 50% | Herbicidal action 28 DAT against Viola tricolor (Viola tricolor [1]; 1 g of a.i./ha): 15% | Herbicidal action 28 DAT against Viola tricolor (Viola tricolor [1]; 4 g of a.i./ha): 30% | Herbicidal action 14 DAT against Viola tricolor (Viola tricolor [1]; 16 g of a.i./ha): 85% | Herbicidal action 28 DAT against Viola tricolor (Viola tricolor [1]; 16 g of a.i./ha): 20% | Herbicidal action 28 DAT against Viola tricolor (Viola tricolor [1]; (Z61) post-emergence, g of a.i./ha: 16, 1, 30, 16 + 30, 1 + 30, 1 g of a.i./ha): 15% | Herbicidal action 28 DAT against Viola tricolor (Viola tricolor [1]; (Z61) post-emergence, g of a.i./ha: 16, 1, 30, 16 + 30, 1 + 30, 16 g of a.i./ha): 20% | Herbicidal action 14 DAT against Matricaria inodora (Matricaria inodora; 1 g of a.i./ha): 0% | Herbicidal action 28 DAT against Matricaria inodora (Matricaria inodora; 1 g of a.i./ha): 0% | Herbicidal action in [%] 28 DAT against Matricaria inodora (Matricaria inodora; 1 g of a.i./ha, post-emergence): 0% | Herbicidal action 14 DAT against Matricaria inodora (Matricaria inodora; 4 g of a.i./ha): 30% | Herbicidal action 28 DAT against Matricaria inodora (Matricaria inodora; 4 g of a.i./ha): 30% | Herbicidal action in [%] 14 DAT against Matricaria inodora (Matricaria inodora; 4 g of a.i./ha): 20% | Herbicidal action in [%] 28 DAT against Matricaria inodora (Matricaria inodora; 4 g of a.i./ha, post-emergence): 0% | Herbicidal action (Matricaria inodora; 14 DAT): 0% | Herbicidal action against Matricaria inodora (Matricaria inodora; 14 DAT, 4 g of a.i./ha): 20% | Herbicidal action against Matricaria inodora (Matricaria inodora; 14 DAT, 16 g of a.i./ha): 20% | Herbicidal action 14 DAT against Matricaria inodora (Matricaria inodora; 16 g of a.i./ha): 20% | Herbicidal action 28 DAT against Matricaria inodora (Matricaria inodora; 16 g of a.i./ha): 15% | Herbicidal action in [%] 14 DAT against Matricaria inodora (Matricaria inodora; 16 g of a.i./ha): 20% and 40% | Herbicidal action (Matricaria inodora; 28 DAT): 0% | Herbicidal action against Matricaria inodora (Matricaria inodora; 28 DAT, 1 g of a.i./ha): 15% | Herbicidal action against Matricaria inodora (Matricaria inodora; 28 DAT, 16 g of a.i./ha): 15% | Herbicidal action 14 DAT against Matricaria inodora (Matricaria inodora; (Z61) post-emergence, g of a.i./ha: 1, 270, 30, 1 + 270, 1 + 30): 0% | Herbicidal action in [%] 14 DAT against Matricaria inodora (Matricaria inodora; post-emergence, 14 DAT, 4 g of a.i./ha): 30% | Herbicidal action in [%] 14 DAT against Matricaria inodora (Matricaria inodora; post-emergence, 14 DAT, 16 g of a.i./ha): 40% | Herbicidal action against Alopecurus myosuroides (Alopecurus myosuroides [2]; 14 DAT, 1 g of a.i./ha): 15% | Herbicidal action against Alopecurus myosuroides (Alopecurus myosuroides [2]; 14 DAT, 4 g of a.i./ha): 90% | Herbicidal action against Alopecurus myosuroides (Alopecurus myosuroides [2]; 28 DAT, 1 g of a.i./ha): 15% | Herbicidal action against Alopecurus myosuroides (Alopecurus myosuroides [2]; 28 DAT, 4 g of a.i./ha): 50% | Herbicidal action 43 DAT [%] against Ephilobium hirsutum (Ephilobium hirsutum): 77% | Herbicidal action in [%] 14 DAT against Lolium rigidum (Lolium rigidum [3]; 1 g of a.i./ha): 35% and 40% | Herbicidal action in [%] 28 DAT against Lolium rigidum (Lolium rigidum [3]; 1 g of a.i./ha): 15% and 10% | Herbicidal action in [%] 14 DAT against Lolium rigidum (Lolium rigidum [3]; 4 g of a.i./ha): 85% | Herbicidal action in [%] 28 DAT against Lolium rigidum (Lolium rigidum [3]; 4 g of a.i./ha): 50% and 70% | Herbicidal action 28 DAT [%] against Brachiaria plantaginea (Brachiaria plantaginea; 100 g of a.i./ha): 82% | Herbicidal action 28 DAT against Brachiaria plantaginea (Brachiaria plantaginea; [8]): 82% | Herbicidal action 28 DAT against Brachiaria plantaginea (Brachiaria plantaginea; A3/Asulam, post-emergence, g of a.i./ha by row: 720, 100, 100 + 720): 82% | Herbicidal action against Bromus sterilis (Bromus sterilis; 14 DAT, 1 g of a.i./ha): 15% | Herbicidal action against Bromus sterilis (Bromus sterilis; 14 DAT, 4 g of a.i./ha): 85% | Herbicidal action against Bromus sterilis (Bromus sterilis; 28 DAT, 1 g of a.i./ha): 15% | Herbicidal action 28 DAT against Digitaria horizontalis (Digitaria horizontalis; [8]): 96% | Herbicidal action 28 DAT against Digitaria horizontalis (Digitaria horizontalis; A3/Asulam, first sub-table, post-emergence, g of a.i./ha by row: 720, 100, 100 + 720): 96% | Herbicidal action 28 DAT against Digitaria horizontalis (Digitaria horizontalis; A3/Asulam, second sub-table, post-emergence, g of a.i./ha by row: 720, 100, 100 + 720): 87% | Herbicidal action in [%] 14 DAT against Phalaris minor (Phalaris minor; 1 g of a.i./ha): 10% and 20% | Herbicidal action in [%] 28 DAT against Phalaris minor (Phalaris minor; 1 g of a.i./ha): 0% and 10% | Herbicidal action in [%] 14 DAT against Phalaris minor (Phalaris minor; 4 g of a.i./ha): 90% and 85% | Herbicidal action in [%] 28 DAT against Phalaris minor (Phalaris minor; 4 g of a.i./ha): 70% | Herbicidal action in [%] 14 DAT against Phalaris minor (Phalaris minor; 16 g of a.i./ha): 85% | Herbicidal action against Lolium rigidum (resistant biotype) ([4]; 14 DAT, 1 g of a.i./ha): 15% | Herbicidal action against Lolium rigidum (resistant biotype) ([4]; 14 DAT, 4 g of a.i./ha): 40% | Herbicidal action against Lolium rigidum (resistant biotype) ([4]; 28 DAT, 1 g of a.i./ha): 0% | Herbicidal action 14 DAT against Galium aparine (Galium aparine; 1 g of a.i./ha): 40% | Herbicidal action 28 DAT against Galium aparine (Galium aparine; 1 g of a.i./ha): 15% | Herbicidal action in [%] 14 DAT against Galium aparine (Galium aparine; 1 g of a.i./ha): 40% | Herbicidal action in [%] 28 DAT against Galium aparine (Galium aparine; 1 g of a.i./ha): 15% | Herbicidal action in [%] 28 DAT against Galium aparine (Galium aparine; 4 g of a.i./ha): 65% | Herbicidal action in [%] 28 DAT against Galium aparine (Galium aparine; 4 g of a.i./ha, post-emergence): 70% | Herbicidal action against Galium aparine (Galium aparine; 14 DAT, 1 g of a.i./ha): 40% | Herbicidal action 28 DAT against Galium aparine (Galium aparine; 16 g of a.i./ha): 75% | Herbicidal action in [%] 28 DAT against Galium aparine (Galium aparine; 16 g of a.i./ha): 75% | Herbicidal action in [%] 28 DAT against Galium aparine (Galium aparine; 16 g of a.i./ha, post-emergence): 80% | Herbicidal action against Galium aparine (Galium aparine; 28 DAT, 1 g of a.i./ha): 15% | Herbicidal action 14 DAT against Galium aparine (Galium aparine; [9]): 40% | Herbicidal action (Malva pusilia): 50% | Herbicidal action in [%] 14 DAT against Viola tricolor (Viola tricolor [5]; 1 g of a.i./ha): 50% | Herbicidal action in [%] 28 DAT against Viola tricolor (Viola tricolor [5]; 1 g of a.i./ha): 15% | Herbicidal action in [%] 28 DAT against Viola tricolor (Viola tricolor [5]; 4 g of a.i./ha): 30% | Herbicidal action (Lysimachia nummularia): 18% | Herbicidal action 14 DAT against Lolium rigidum (Lolium rigidum [6]; 1 g of a.i./ha): 35% | Herbicidal action 28 DAT against Lolium rigidum (Lolium rigidum [6]; 1 g of a.i./ha): 15% | Herbicidal action 28 DAT against Lolium rigidum (Lolium rigidum [6]; 4 g of a.i./ha): 50% | Herbicidal action in [%] 14 DAT against Lolium rigidum (Lolium rigidum [6]; 1 g of a.i./ha): 40% | Herbicidal action in [%] 14 DAT against Lolium rigidum (Lolium rigidum [6]; 4 g of a.i./ha): 85% | Herbicidal action in [%] 28 DAT against Lolium rigidum (Lolium rigidum [6]; 1 g of a.i./ha): 10% | Herbicidal action in [%] 28 DAT against Lolium rigidum (Lolium rigidum [6]; 4 g of a.i./ha): 70% | Herbicidal action 14 DAT against Lolium rigidum (Lolium rigidum [6]; [9]): 35% | Herbicidal action (Veronica hederifolia): 30% | Herbicidal action (Alopecurus myosuroides [7]; 14 DAT, 1 g a.i./ha): 30% | Herbicidal action (Alopecurus myosuroides [7]; 14 DAT, 4 g a.i./ha): 75% | Herbicidal action (Alopecurus myosuroides [7]; 28 DAT, 1 g a.i./ha): 10% | Herbicidal action (Alopecurus myosuroides [7]; 28 DAT, 4 g a.i./ha): 60%
